Results taken from patent US4886821A, “2-pyridinecarbothioamides and pharmaceutical compositions comprising the same useful as anti ulcer agents” (American Home Products Corporation, priority 1987, dated 1989).

Legend:
stress induced ulcers = test: Stress-induced gastric ulcers in rats; format: in vivo, Male rats; conditions: Rattus norvegicus, po; orally or parenterally, usually 15 to 45 minutes prior to stress; restraint at 4-5 °C for 3 hours, sodium taurocholate p.o.; read-out: Stress Induced Ulcer ED50
Description: The purpose of this assay is to evaluate the effectiveness of the compounds of the present invention in preventing stress induced ulcers.
Male rats (280-380 g) were fasted for 18 hours (water available ad libitum) prior to use in experiments. Eight to twelve rats were used per group.
Drug solutions or suspensions were prepared in physiological saline solution. Suspensions were prepared with the aid of 0.5% carboxymethylcellulose in physiological saline solution. Drugs were administered orally or parenterally at predetermined intervals (usually 15 to 45 minutes) prior to stress.
This test procedure is according to the method of Senay et al., Proc. Soc. Exp. Biol. Med. 124, 1221 (1967), modified to produce a more consistent ulcer incidence. After drug administration, the rats were immobilized in metallic restrainers and placed in a cold room at 4°-5° C. for 3 hours before they were killed by cervical dislocation. Each rat was given 20 mg of sodium taurocholate p.o. immediately before placing it in the restrainer. After killing the rats, the stomachs were excised and examined. Macroscopic ulcers were subjectively assigned a grade from 1 to 3 on the basis of increasing size. The number of ulcers in each size category was determined and multiplied by the respective grade; the addition of the resultant values gave the cumulative ulcer score. The average cumulative ulcer score of each treatment group was compared to that of the control group and the percent inhibition of ulcer formation as calculated. When the responses obtained were directly proportional to the doses employed, ED50 values were determined from the dose-response curves obtained.

[1] = test system: gastric mucosal lesions produced by ethanol; test: Ethanol induced cytotoxicity (gastric mucosal lesions) in rats; format: in vivo, Male Sprague-Dawley rats; conditions: for ED50: Rattus norvegicus, po; for % Inhibition: oral, inhibition of lesion formation vs control
Description: The purpose of this assay is to evaluate the effectiveness of the compounds of the present invention in preventing the formation of gastric mucosal lesions produced by ethanol. The assay is based on A. Robert, et al: Gastroenterology, 77: 433-443, 1979.
Male Sprague-Dawley rats weighing between 120-150 grams were fasted for 24 hours prior to the experiment (water ad libitum). At least two hours before dosing, the animals were placed in individual cages with wire grid bottoms and denied access to water.
Ethanol was administered orally at 1 mL per animal. The compounds of the present invention were dissolved in water or suspended in water with 0.5% carboxymethylcellulose and administered orally at a dose based on an appropriate standard giving ED50 to ED75 response of cytoprotective activity.
The rats were randomly divided into groups of equal number, ordinarily 10 to a group. The rats were weighed and the individual weights were recorded. Exactly 1 hour (4 hours in the case of Example 5) prior to the administration of ethanol, the screening group was treated with the compounds of the present invention, and the control group with the vehicle. One hour after administering the ethanol the animals were sacrificed by cervical dislocation. The stomachs were removed, cut along the greater curvature and cleansed of all debris with tap water. The stomachs were set aside and kept moist with saline until the lesions were scored.
Macroscopic lesions on the gastric mucosa were numerically graded. The final grade assigned a stomach was the sum of all the grades.
Streaks longer than 6 mm are graded in multiples of 2 mm.
The degree of cytotoxicity occuring in each group is represented as the mean±S.E.M.
The mean of each treatment group was compared to the control group and expressed as the % inhibition of lesion formation.

ethanol induced ulcer = conditions: Robert et al., Scand. J. Gastroenterol. 1984; cited from earlier work
[2] = 10 mg/kg, 1 hour prior to ethanol

Structure (SMILES) | ED50 (stress induced ulcers) | ED50 [1] | other results
Fc1ccc(NC(=S)c2ccccn2)c(F)c1 [Example 2, N-(2,4-Difluorophenyl)-2-pyridinecarbothioamide] | 38 mg/kg | 4.8 mg/kg | –
Fc1ccc(NC(=S)c2ccccn2)cc1 [Example 3, N-(4-Fluorophenyl)-2-pyridinecarbothioamide] | 3.8 mg/kg | 2.5 mg/kg | –
Fc1cccc(NC(=S)c2ccccn2)c1 [Example 4, N-(3-Fluorophenyl)-2-pyridinecarbothioamide] | – | 1 mg/kg | –
Fc1ccccc1NC(=S)c1ccccn1 [Example 5, N-(2-Fluorophenyl)-2-pyridinecarbothioamide] | – | – | % Inhibition ([1]; 100 mg/kg, 4 hours prior to ethanol): 69%
CN(C(=S)c1ccccn1)c1cccc(F)c1 [Example 6, N-(3-Fluorophenyl)-N-methyl-2-pyridinecarbothioamide] | – | – | % Inhibition [1, 2]: 31%
CN(C(=S)c1ccccn1)c1cc(F)cc(F)c1 [Example 7, N-(3,5-Difluorophenyl)-N-methyl-2-pyridinecarbothioamide] | – | – | % Inhibition ([1]; 25 mg/kg, 1 hour prior to ethanol): 40%
CCN(C(=S)c1ccccn1)c1cc(F)cc(F)c1 [Example 8, N-(3,5-Difluorophenyl)-N-ethyl-2-pyridinecarbothioamide] | – | – | % Inhibition [1, 2]: 13%
Fc1cccc(F)c1NC(=S)c1ccccn1 [Example 9, N-(2,6-Difluorophenyl)-2-pyridinecarbothioamide] | 1.8 mg/kg | 0.38 mg/kg | –
Fc1cccc(NC(=S)c2ccccn2)c1F [Example 10, N--(2,3-difluorophenyl)-2-pyridinecarbothioamide] | 0.9 mg/kg | 1 mg/kg | –
Fc1ccc(F)c(NC(=S)c2ccccn2)c1 [Example 12, N--(2,5-difluorophenyl)-2-pyridinecarbothioamide] | – | 6.2 mg/kg | –
CN/C(=N/CCSCc1nc[nH]c1C)NC#N [cimetidine] | – | – | protection in ethanol induced ulcer model (ethanol induced ulcer): do not protect in this model
CC(C)[N+](C)(CCOC(=O)C1c2ccccc2Oc2ccccc21)C(C)C [propantheline bromide] | – | – | protection in ethanol induced ulcer model (ethanol induced ulcer): do not protect in this model
